For the assay, the system named is drug-resistant Mycobacterium tuberculosis. Conditions: 5 micrograms per ml.

Square brackets hold non-standard residues; d marks the D form. Peptide text beside a SMILES is read from it. pGlu = O=C1CC[C@@H](C(=O)O)N1

A word on the % inhibition: it is the change of the read-out against control, counted positive when it falls. As for `CC[C@H](C)[C@H](NC(=O)[C@H](CCCCN)NC(=O)[C@@H]1CCCN1C(=O)[C@H](CCCNC(=N)N)NC(=O)[C@@H]1CCCN1C(=O)[C@@H]1CCCN1C(=O)[C@H](CC(C)C)NC(=O)CNC(=O)[C@@H]1CCC(=O)N1)C(=O)N1CCC[C@H]1C(=O)N1CCC[C@H]1C(=O)O` [Bradykinin potentiator B, Pyr-Gly-Leu-Pro-Pro-Arg-Pro-Lys-Ile-Pro-Pro-OH] ([pGlu]GLPPRPKIPP-OH), the “% inhibition” value is on record as 0.0%.

Source of the values: patent publication US20100204141A1, “USE OF BPP-B AS A THERAPEUTIC AGENT” (priority 2007, published 2010).
